# According to patent publication US9637469B2, “Pyridine derivative” (Teijin Pharma Limited, priority 2012, dated 2017):
# Target: T1, human URAT1 (Homo sapiens, UniProt Q96S37)
# T1 construct: Full-length cDNA of human URAT1 (hURAT1)
# T1 sequence (Q96S37 1-553): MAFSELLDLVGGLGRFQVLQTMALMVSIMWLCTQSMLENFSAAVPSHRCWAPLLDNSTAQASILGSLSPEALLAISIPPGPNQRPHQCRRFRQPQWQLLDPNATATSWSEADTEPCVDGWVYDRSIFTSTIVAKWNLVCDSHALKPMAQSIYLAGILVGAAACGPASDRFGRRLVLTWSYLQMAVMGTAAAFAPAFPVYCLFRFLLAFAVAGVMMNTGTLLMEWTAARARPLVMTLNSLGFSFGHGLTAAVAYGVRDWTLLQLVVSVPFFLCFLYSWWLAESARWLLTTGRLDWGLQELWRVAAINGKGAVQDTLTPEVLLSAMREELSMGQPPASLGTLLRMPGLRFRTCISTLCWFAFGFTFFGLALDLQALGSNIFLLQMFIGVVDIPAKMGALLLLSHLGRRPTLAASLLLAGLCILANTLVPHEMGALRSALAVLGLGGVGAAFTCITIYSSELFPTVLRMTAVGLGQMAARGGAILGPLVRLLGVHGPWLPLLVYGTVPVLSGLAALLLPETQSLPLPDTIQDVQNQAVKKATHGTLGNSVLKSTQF
# Test: Test for inhibition of uric acid transport using human URAT1-expressing cells;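 further: three stars up to 0.2 µM two stars 0.2-2 µM one star 2-20 µM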
# Type: cell-based
# Conditions: HEK 293 cells expressing human URAT1; 14C-labeled uric acid 25 μM; uptake 37° C. for 5 min
# How it was run: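 IC50 values reflect inhibition of ¹⁴C-uric acid uptake (25 μM final, 5 min, 37 °C) by compound. Cells were HEK293 stably expressing full-length human URAT1, preincubated in Na-gluconate-substituted HBSS. Radioactivity in lysates was expressed relative to DMSO control as 100%.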
row,SMILES,Inhibitory Activity (IC50 of uric acid transport inhibition)
1,"Cc1nc(-c2cccnc2)n(Cc2cc(Cl)sc2Cl)c1C(=O)O [Compound A79, 1-((2,5-dichlorothiophen-3-yl)methyl)-4-methyl-2-(pyridin-3-yl)-1H-imidazole-5-carboxylic acid]",* *
2,"Cc1ccc(Cn2c(-c3cccnc3)nc(C3CC3)c2C(=O)O)c2ccccc12 [Compound A18, 4-cyclopropyl-1-((4-methylnaphthalen-1-yl)methyl)-2-(pyridin-3-yl)-1H-imidazole-5-carboxylic acid]",* * *
3,"CC(O)c1nc(-c2cncc(Cl)c2)n(Cc2cc(Cl)ccc2Cl)c1C(=O)O (stereo not drawn) [Compound A211, 2-(5-chloropyridin-3-yl)-1-(2,5-dichlorobenzyl)-4-(1-hydroxyethyl)-1H-imidazole-5-carboxylic acid]",* * *
4,"O=C(O)c1c(C2CC2)nc(-c2cccnc2)n1Cc1cccc2ccsc12 [Compound A82, 1-(benzo[b]thiophen-7-ylmethyl)-4-cyclopropyl-2-(pyridin-3-yl)-1H-imidazole-5-carboxylic acid]",* *
5,"Cc1nc(-c2cccnc2)n(Cc2cc(C(F)(F)F)ccc2Cl)c1C(=O)O [Compound A43, 1-(2-chloro-5-(trifluoromethyl)benzyl)-4-methyl-2-(pyridin-3-yl)-1H-imidazole-5-carboxylic acid]",* * *
6,"O=C(O)c1c(OCC(F)(F)F)nc(-c2cccnc2)n1Cc1cc(Cl)ccc1Cl [Compound A98, 1-(2,5-dichlorobenzyl)-2-(pyridin-3-yl)-4-(2,2,2-trifluoroethoxy)-1H-imidazole-5-carboxylic acid]",* * *
7,"C=Cc1nc(-c2cccnc2)n(Cc2cc(Cl)ccc2Cl)c1C(=O)O [Compound A102, 1-(2,5-dichlorobenzyl)-2-(pyridin-3-yl)-4-vinyl-1H-imidazole-5-carboxylic acid]",* *
8,"Cc1cncc(-c2ccc(/C=C/C(=O)O)n2Cc2cc(Cl)ccc2Cl)c1 [Compound B34, (E)-3-(1-(2,5-dichlorobenzyl)-2-(5-methylpyridin-3-yl)-1H-pyrrol-5-yl)acrylic acid]",* * *
9,"O=C(O)c1c(C(F)(F)F)nc(-c2cncc(C(F)(F)F)c2)n1Cc1cc(Cl)ccc1Cl [Compound A140, 1-(2,5-dichlorobenzyl)-4-(trifluoromethyl)-2-(5-(trifluoromethyl)pyridin-3-yl)-1H-imidazole-5-carboxylic acid]",* * *
10,"CC(C)c1nc(-c2cccnc2)n(Cc2cccc3ccsc23)c1C(=O)O [Compound A83, 1-(benzo[b]thiophen-7-ylmethyl)-4-isopropyl-2-(pyridin-3-yl)-1H-imidazole-5-carboxylic acid]",* *
11,"O=C(O)c1c(CO)nc(-c2cncc(Cl)c2)n1Cc1cc(Cl)ccc1Cl [Compound A191, 2-(5-chloropyridin-3-yl)-1-(2,5-dichlorobenzyl)-4-(hydroxymethyl)-1H-imidazole-5-carboxylic acid]",* * *
12,"Cc1nc(-c2cncc(C(F)(F)F)c2)n(Cc2csc3cccc(Cl)c23)c1C(=O)O [Compound A143, 1-((4-chlorobenzo[b]thiophen-3-yl)methyl)-4-methyl-2-(5-(trifluoromethyl)pyridin-3-yl)-1H-imidazole-5-carboxylic acid]",* * *
13,"COc1cncc(-c2nc(C)c(C(=O)O)n2Cc2cc(Cl)ccc2Cl)c1 [Compound A157, 1-(2,5-dichlorobenzyl)-2-(5-methoxypyridin-3-yl)-4-methyl-1H-imidazole-5-carboxylic acid]",* * *
14,"O=C(O)c1c(Cl)nc(-c2cccnc2)n1Cc1cc(Cl)ccc1Cl [Compound A88, 4-chloro-1-(2,5-dichlorobenzyl)-2-(pyridin-3-yl)-1H-imidazole-5-carboxylic acid]",* * *
15,"CC(C)c1nc(-c2cncc(Cl)c2)n(Cc2cccc3ccsc23)c1C(=O)O [Compound A235, 1-(benzo[b]thiophen-7-ylmethyl)-2-(5-chloropyridin-3-yl)-4-isopropyl-1H-imidazole-5-carboxylic acid]",* * *
16,"Cc1ccc(C)c(Cn2c(-c3cncc(Cl)c3)nc(C)c2C(=O)O)c1 [Compound A179, 2-(5-chloropyridin-3-yl)-1-(2,5-dimethylbenzyl)-4-methyl-1H-imidazole-5-carboxylic acid]",* * *
17,"O=C(O)c1c(-c2cccc(F)c2)nc(-c2cccnc2)n1Cc1cc(Cl)ccc1Cl [Compound A92, 1-(2,5-dichlorobenzyl)-4-(3-fluorophenyl)-2-(pyridin-3-yl)-1H-imidazole-5-carboxylic acid]",* * *
18,"CS(=O)(=O)NC(=O)c1ccc(-c2cncc(Cl)c2)n1Cc1cc(Cl)ccc1Cl [Compound B29, 2-(5-chloropyridin-3-yl)-1-(2,5-dichlorobenzyl)-N-(methylsulfonyl)-1H-pyrrole-5-carboxamide]",* * *
19,"CC(C)(Sc1ncc(-c2cncc(Cl)c2)n1Cc1cc(Cl)ccc1Cl)C(=O)O [Compound A266, 2-((5-(5-chloropyridin-3-yl)-1-(2,5-dichlorobenzyl)-1H-imidazol-2-yl)thio)-2-methylpropanoic acid]",* *
20,"Cc1ccc(Oc2nc(-c3cccnc3)n(Cc3cc(Cl)ccc3Cl)c2C(=O)O)cc1 [Compound A99, 1-(2,5-dichlorobenzyl)-2-(pyridin-3-yl)-4-(p-tolyloxy)-1H-imidazole-5-carboxylic acid]",* * *
21,"Cc1nc(-c2cncc(O)c2)n(Cc2cc(Cl)ccc2Cl)c1C(=O)O [Compound A172, 1-(2,5-dichlorobenzyl)-2-(5-hydroxypyridin-3-yl)-4-methyl-1H-imidazole-5-carboxylic acid]",* *
22,"O=C(O)c1c(Oc2ccc(F)cc2)nc(-c2cccnc2)n1Cc1cc(Cl)ccc1Cl [Compound A100, 1-(2,5-dichlorobenzyl)-4-(4-fluorophenoxy)-2-(pyridin-3-yl)-1H-imidazole-5-carboxylic acid]",* * *
23,"CC(C)(Sc1cnc(-c2cncc(Cl)c2)n1Cc1cc(Cl)ccc1Cl)C(=O)O [Compound A262, 2-((2-(5-chloropyridin-3-yl)-1-(2,5-dichlorobenzyl)-1H-imidazol-5-yl)thio)-2-methylpropanoic acid]",* *
24,"CCc1nc(-c2cncc(Cl)c2)n(Cc2cccc3ccccc23)c1C(=O)O [Compound A149, 2-(5-chloropyridin-3-yl)-4-ethyl-1-(naphthalen-1-ylmethyl)-1H-imidazole-5-carboxylic acid]",* * *
25,"CC(C)c1nc(-c2cccnc2)n(Cc2cccc3ccccc23)c1C(=O)O [Compound A24, 4-isopropyl-1-(naphthalen-1-ylmethyl)-2-(pyridin-3-yl)-1H-imidazole-5-carboxylic acid]",* *

# Same assay, conditions: HEK 293 cells expressing human URAT1; 14C-labeled uric acid 25 μM; uptake 37° C. for 5 min; read-out: Inhibitory Activity (IC50 of uric acid transport inhibition)
row,SMILES,IC50 [µM]
1,Cc1cncc(-c2nc(C)c(C(=O)O)n2C(C)c2cc(Cl)ccc2Cl)c1 (stereo not drawn) [Compound A224],2 to 20
2,Cc1nc(-c2cccnc2)n(Cc2ccc(F)cc2)c1C(=O)O [Compound A50],2 to 20
3,Cc1nc(-c2cccnc2)n(Cc2csc3cccc(C)c23)c1C(=O)O [Compound A5],2 to 20
4,Cc1nc(-c2cccnc2)n(Cc2cccc(F)c2)c1C(=O)O [Compound A49],2 to 20
5,CC(C)(Sc1cnc(-c2cccnc2)n1Cc1cc(Cl)ccc1Cl)C(=O)O [Compound A261],2 to 20
6,Cc1nc(-c2ccnc(Cl)c2)n(Cc2cccc3ccccc23)c1C(=O)O [Compound A242],2 to 20
7,Cc1nc(-c2cccnc2)n(Cc2ccc(Br)cc2)c1C(=O)O [Compound A56],2 to 20
8,Cc1cncc(-c2nc(C)c(C(=O)O)n2Cc2cccc3ccccc23)c1 [Compound A124],2 to 20
